Source: patent US20220241249A1, “PHARMACEUTICAL COMPOSITION AND KIT CONTAINING NOVEL PENAM DERIVATIVE OR SALT THEREOF AND ONE OR MORE COMPOUNDS SELECTED FROM beta-LACTAMASE INHIBITORY COMPOUND AND ANTIBACTERIAL COMPOUND OR SALTS THEREOF” (priority 2019, published 2022)
≈ marks a conversion by molar mass, not a printed value.

Assays:
Assay in all cases: Antibacterial activity evaluation test, MIC by broth microdilution (CLSI)
Format in all cases: cell-based
[1] = system: Pseudomonas aeruginosa strain ATCC27853
Procedure: (§1) The minimum inhibitory concentration (MIC) was measured according to the Clinical and Laboratory Standards Institute (CLSI) standard method by using the following broth microdilution method.
(§2) As bacteria, a Pseudomonas aeruginosa strain ATCC27853, an AmpC-derepressed Pseudomonas aeruginosa mutant strain (S-3028), an IMP-1-containing Pseudomonas aeruginosa strain (S-2838), a VIM-2-containing Pseudomonas aeruginosa strain (S-3779), a GES-19 and GES-20-containing Pseudomonas aeruginosa strain (S-3759), a CTX-M-15-containing Escherichia coli strain (TK-1747), a KPC-2-containing Klebsiella pneumoniae strain (Y-995), an OXA-48-containing Klebsiella pneumoniae strain (Y-1062), and an NDM-1-containing Klebsiella pneumoniae strain (Y-1007) were used. The test bacterial cells that had been cultured overnight on a Mueller Hinton agar medium were scraped off, suspended at a density equivalent to 0.5 McFarland standard, and diluted 10-fold, thereby obtaining an inoculum. A cation-adjusted Mueller Hinton medium containing a test compound was inoculated with 0.005 mL of the inoculum, and the cells were cultured at 35° C. for 16 to 20 hours. The minimum drug concentration at which the growth of bacteria was not visually observed was defined as MIC (μg/mL).
(§3) An antibacterial activity evaluation test was performed in the same manner as in Test Example 1.

[2] = system: NDM-1-containing Klebsiella pneumoniae strain (Y-1007)
Procedure: as §1, §2, §3

[3] = system: VIM-2-containing Pseudomonas aeruginosa strain (S-3779)
Procedure: as §1, §2, §3

[4] = system: AmpC-derepressed Pseudomonas aeruginosa mutant strain (S-3028)
Procedure: as §1, §2, §3

[5] = system: CTX-M-15-containing Escherichia coli strain (TK-1747)
Procedure: as §1, §2, §3

[6] = system: GES-19 and GES-20-containing Pseudomonas aeruginosa strain (S-3759)
Procedure: as §1, §2, §3

[7] = system: IMP-1-containing Pseudomonas aeruginosa strain (S-2838)
Procedure: as §1, §2, §3

[8] = system: KPC-2-containing Klebsiella pneumoniae strain (Y-995)
Procedure: as §1, §2, §3

[9] = system: OXA-48-containing Klebsiella pneumoniae strain (Y-1062)
Procedure: as §1, §2, §3

[10] = Pseudomonas aeruginosa, ATCC27853

Compound	MIC ([1]; Pseudomonas aeruginosa ATCC 27853, 35° C., 16 to 20 hours)	MIC ([2]; Klebsiella pneumoniae Y-1007, 35° C., 16 to 20 hours)	MIC ([3]; Pseudomonas aeruginosa S-3779, 35° C., 16 to 20 hours)	MIC ([4]; Pseudomonas aeruginosa S-3028, 35° C., 16 to 20 hours)	MIC ([5]; Escherichia coli TK-1747, 35° C., 16 to 20 hours)	MIC ([6]; Pseudomonas aeruginosa S-3759, 35° C., 16 to 20 hours)	MIC ([7]; Pseudomonas aeruginosa S-2838, 35° C., 16 to 20 hours)	MIC ([8]; Klebsiella pneumoniae Y-995, 35° C., 16 to 20 hours)	MIC ([9]; Klebsiella pneumoniae Y-1062, 35° C., 16 to 20 hours)	MIC [1, 10]	MIC ([2]; Klebsiella pneumoniae)	MIC ([3]; Pseudomonas aeruginosa)	MIC ([4]; Pseudomonas aeruginosa)	MIC ([5]; Escherichia coli)	MIC ([6]; Pseudomonas aeruginosa)	MIC ([7]; Pseudomonas aeruginosa)	MIC ([8]; Klebsiella pneumoniae)	MIC ([9]; Klebsiella pneumoniae)
Nc1nc(/C(=N/OC2(C(=O)O)CC2)C(=O)N[C@@H]2C(=O)N3C[C@@](C(=O)O)(N4CCN(NC(=O)CCNC(=O)C(=O)c5ccc(O)c(O)c5Cl)C4=O)S[C@H]23)c(Cl)s1 [Example 107, (3R,5R,6R)-6-((Z)-2-(2-amino-5-chlorothia-zol-4-yl)-2-((1-carboxy-cyclopropoxy)imino)-acetamido)-3-(3-(3-(2-(2-chloro-3,4-dihydroxy-phenyl)-2-oxoaceta-mido)proanamido)-2-oxoimidazolidin-1-yl)-7-oxo-4-thia-1-aza-bicyclo[3.2.0]heptane-3-carboxylic acid]	0.25 µg/mL (≈ 0.296 µM)	<0.06 µg/mL	0.25 µg/mL (≈ 0.296 µM)	2 µg/mL (≈ 2.37 µM)	0.25 µg/mL (≈ 0.296 µM)	0.5 µg/mL (≈ 0.592 µM)	0.5 µg/mL (≈ 0.592 µM)	2 µg/mL (≈ 2.37 µM)	0.25 µg/mL (≈ 0.296 µM)	–	–	–	–	–	–	–	–	–
CC(C)(O/N=C(\C(=O)NC1C(=O)N2C[C@@](C(=O)O)(N3CCN(NC(=O)C(=O)NCCNC(=O)C(=O)c4ccc(O)c(O)c4Cl)C3=O)S[C@H]12)c1csc(N)n1)C(=O)O (stereo partly drawn) [Example 121, (3R,5R,6R)-6-((Z)-2-(2-aminothiazol-4-yl)-2-(((2-carboxypropan-2-yl)oxy)imino)aceta-mido)-3-(3-(2-((2-(2-(2-chloro-3,4-dihydroxy-phenyl)-2-oxoaceta-mido)ethyl)amino)-2-oxoacetamido)-2-oxo-imidazolidin-1-yl)-7-oxo-4-thia-1-azabicyclo-[3.2.0]heptane-3-carbox-ylic acid]	–	–	–	–	–	–	–	–	–	2 µg/mL (≈ 2.34 µM)	0.12 µg/mL (≈ 0.14 µM)	1 µg/mL (≈ 1.17 µM)	2 µg/mL (≈ 2.34 µM)	< 0.06 µg/mL	2 µg/mL (≈ 2.34 µM)	4 µg/mL (≈ 4.68 µM)	0.25 µg/mL (≈ 0.292 µM)	0.5 µg/mL (≈ 0.585 µM)
Nc1nc(/C(=N/O[C@@H](CO)C(=O)O)C(=O)NC2C(=O)N3C[C@@](C(=O)O)(N4CCN(NC(=O)C(=O)c5ccc(O)c(O)c5Cl)C4=O)S[C@H]23)cs1 (stereo partly drawn) [Example 113, (3R,5R,6R)-6-((Z)-2-(2-aminothiazol-4-yl)-2-(((S)-1-carboxy-2-hydroxyethoxy)imino)-acetamido)-3-(3-(2-(2-chloro-3,4-dihydroxy-phenyl)-2-oxoaceta-mido)-2-oxoimidazol-idin-1-yl)-7-oxo-4-thia-1-azabicyclo[3.2.0]-heptane-3-carboxylic acid]	–	–	–	–	–	–	–	–	–	4 µg/mL (≈ 5.38 µM)	< 0.06 µg/mL	0.5 µg/mL (≈ 0.673 µM)	0.25 µg/mL (≈ 0.336 µM)	< 0.06 µg/mL	1 µg/mL (≈ 1.35 µM)	0.5 µg/mL (≈ 0.673 µM)	0.12 µg/mL (≈ 0.161 µM)	0.25 µg/mL (≈ 0.336 µM)
CC(C)(O/N=C(\C(=O)N[C@@H]1C(=O)N2C[C@@](C(=O)O)(N3CCN(NC(=O)C(=O)NNC(=O)C(=O)c4ccc(O)c(O)c4Cl)C3=O)S[C@H]12)c1csc(N)n1)C(=O)O [Example 88, (3R,5R,6R)-6-((Z)-2-(2-aminothiazol-4-yl)-2-(((2-carboxypropan-2-yl)oxy)imino)acetamido)-3-(3-(2-(2-(2-(2-chloro-3,4-dihydroxyphenyl)-2-oxoacetyl)hydradienyl)-2-oxoacetamido)-2-oxoimidazolidin-1-yl)-7-oxo-4-thia-1-azabicyclo[3.2.0]heptane-3-carboxylic acid]	–	–	–	–	–	–	–	–	–	0.5 µg/mL (≈ 0.604 µM)	< 0.06 µg/mL	0.5 µg/mL (≈ 0.604 µM)	0.5 µg/mL (≈ 0.604 µM)	2 µg/mL (≈ 2.42 µM)	0.5 µg/mL (≈ 0.604 µM)	0.5 µg/mL (≈ 0.604 µM)	0.25 µg/mL (≈ 0.302 µM)	0.5 µg/mL (≈ 0.604 µM)
CC(C)(O/N=C(\C(=O)N[C@@H]1C(=O)N2C[C@@](C(=O)O)(n3nnc(CNC(=O)c4ccc(O)c(O)c4Cl)n3)S[C@H]12)c1csc(N)n1)C(=O)O [Example 141, (3R,5R,6R)-6-((Z)-2-(2-aminothiazol-4-yl)-2-(((2-carboxypropan-2-yl)oxy)imino)acetamido)-3-(5-((2-chloro-3,4-dihydroxybenzamido)methyl)-2H-tetrazol-2-yl)-7-oxo-4-thia-1-azabicyclo[3.2.0]heptane-3-carboxylic acid]	–	–	–	–	–	–	–	–	–	1 µg/mL (≈ 1.41 µM)	0.25 µg/mL (≈ 0.352 µM)	1 µg/mL (≈ 1.41 µM)	0.5 µg/mL (≈ 0.703 µM)	0.5 µg/mL (≈ 0.703 µM)	4 µg/mL (≈ 5.63 µM)	0.25 µg/mL (≈ 0.352 µM)	> 32 µg/mL	1 µg/mL (≈ 1.41 µM)
CC(C)(O/N=C(\C(=O)N[C@@H]1C(=O)N2C[C@@](C(=O)O)(N3CC(=O)N(NC(=O)C(=O)c4ccc(O)c(O)c4Cl)CC3=O)S[C@H]12)c1csc(N)n1)C(=O)O [Example 82, (3R,5R,6R)-6-((Z)-2-(2-aminothiazol-4-yl)-2-(((2-carboxypropan-2-yl)oxy)imino)acetamido)-3-(4-(2-(2-chloro-3,4-dihydroxyphenyl)-2-oxoacetamido)-2,5-dioxopiperazin-1-yl)-7-oxo-4-thia-1-azabicyclo[3.2.0]heptane-3-carboxylic acid]	–	–	–	–	–	–	–	–	–	0.5 µg/mL (≈ 0.65 µM)	0.5 µg/mL (≈ 0.65 µM)	1 µg/mL (≈ 1.3 µM)	4 µg/mL (≈ 5.2 µM)	1 µg/mL (≈ 1.3 µM)	2 µg/mL (≈ 2.6 µM)	4 µg/mL (≈ 5.2 µM)	4 µg/mL (≈ 5.2 µM)	2 µg/mL (≈ 2.6 µM)
CC(C)(O/N=C(\C(=O)N[C@@H]1C(=O)N2C[C@@](C(=O)O)(N3CC(CNC(=O)c4ccc(O)c(O)c4Cl)OC3=O)S[C@H]12)c1csc(N)n1)C(=O)O (stereo partly drawn) [Example 73, (3R,5R,6R)-6-((Z)-2-(2-aminothiazol-4-yl)-2-(((2-carboxypropan-2-yl)oxy)imino)acetamido)-3-(5-((2-chloro-3,4-dihydroxybenzamido)methyl)-2-oxooxazolidin-3-yl)-7-oxo-4-thia-1-azabicyclo[3.2.0]heptane-3-carboxylic acid]	–	–	–	–	–	–	–	–	–	0.5 µg/mL (≈ 0.687 µM)	0.12 µg/mL (≈ 0.165 µM)	1 µg/mL (≈ 1.37 µM)	0.25 µg/mL (≈ 0.343 µM)	0.25 µg/mL (≈ 0.343 µM)	0.5 µg/mL (≈ 0.687 µM)	0.5 µg/mL (≈ 0.687 µM)	16 µg/mL (≈ 22 µM)	1 µg/mL (≈ 1.37 µM)
Nc1nc(/C(=N/OC2(C(=O)O)CC2)C(=O)N[C@@H]2C(=O)N3C[C@@](C(=O)O)(N4CCN(NC(=O)c5ccc(O)c(O)c5Cl)C4=O)S[C@H]23)cs1 [Example 8, (3R,5R,6R)-6-((Z)-2-(2-aminothiazol-4-yl)-2-((1-carboxycyclopropoxy)imino)acetamido)-3-(3-(2-chloro-3,4-dihydroxybenzamido)-2-oxoimidazolidin-1-yl)-7-oxo-4-thia-1-azabicyclo[3.2.0]heptane-3-carboxylic acid]	–	–	–	–	–	–	–	–	–	0.25 µg/mL (≈ 0.352 µM)	< 0.06 µg/mL	1 µg/mL (≈ 1.41 µM)	0.5 µg/mL (≈ 0.703 µM)	0.12 µg/mL (≈ 0.169 µM)	2 µg/mL (≈ 2.81 µM)	4 µg/mL (≈ 5.63 µM)	0.06 µg/mL (≈ 0.0844 µM)	16 µg/mL (≈ 22.5 µM)
CC(C)(O/N=C(\C(=O)N[C@@H]1C(=O)N2C[C@@](C(=O)O)(N3CC[C@@H](NC(=O)C(=O)c4ccc(O)c(O)c4Cl)C3=O)S[C@H]12)c1csc(N)n1)C(=O)O [Example 85, (3R,5R,6R)-6-((Z)-2-(2-aminothiazol-4-yl)-2-(((2-carboxypropan-2-yl)oxy)imino)acetamido)-3-((R)-3-(2-(2-chloro-3,4-dihydroxyphenyl)-2-oxoacetamido)-2-oxopyrrolidin-1-yl)-7-oxo-4-thia-1-azabicyclo[3.2.0]heptane-3-carboxylic acid]	–	–	–	–	–	–	–	–	–	0.5 µg/mL (≈ 0.676 µM)	< 0.06 µg/mL	0.25 µg/mL (≈ 0.338 µM)	0.12 µg/mL (≈ 0.162 µM)	< 0.06 µg/mL	0.25 µg/mL (≈ 0.338 µM)	0.25 µg/mL (≈ 0.338 µM)	< 0.06 µg/mL	0.12 µg/mL (≈ 0.162 µM)
